Data as given in US6825230B2, “Spiro and dispiro 1,2,4-trixolane antimalarials” (Medicines for Malaria Venture MMV, priority 2002, dated 2004).
In brackets after ≈: the same amount, converted by molar mass. Where two headings read alike, the source gives them in different places.

Tests used:
[1] = system: chloroquine-resistant K1 strain of P. falciparum; experiment: In vitro antimalarial semiautomated microdilution assay ([3H]-hypoxanthine incorporation), K1 strain; format: cell-based, Plasmodium falciparum; settings: for IC50: Plasmodium falciparum
In short: (§1)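 Logit regression analysis yields the fifty percent inhibitory concentration. Compounds are tested by semiautomated microdilution on intraerythrocytic parasites drawn from asynchronous stock cultures, measuring [3H]-hypoxanthine incorporation.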

[2] = system: chloroquine-sensitive NF54 strain of P. falciparum; experiment: In vitro antimalarial semiautomated microdilution assay ([3H]-hypoxanthine incorporation), NF54 strain; format: cell-based, Plasmodium falciparum; settings: for IC50: Plasmodium falciparum
In short: as §1

[3] = system: ANKA strain of P. berghei; experiment: Single dose STI in vivo screen in infected mice; parameters: species or system Plasmodium berghei; settings: for Survival (days) 10 mg/kg po: single 10 mg/kg po in 3% ethanol and 7% Tween 80; for Survival (days) 10 mg/kg po / Survival (days) 10 mg/kg SSV po / Survival (days) 10 mg/kg sc: untreated 6-7 days; for Activity (%) 10 mg/kg po: single 10 mg/kg po in 3% ethanol and 7% Tween 80 on day 1 post-infection; for Activity (%) 10 mg/kg po / Activity (%) 10 mg/kg SSV po / Activity (%) 10 mg/kg sc: percent reduction in parasitemia on day 3; for Survival (days) 10 mg/kg SSV po: single 10 mg/kg po in SSV; for Activity (%) 10 mg/kg SSV po: single 10 mg/kg po in standard suspending vehicle (SSV) on day 1 post-infection; for Survival (days) 10 mg/kg sc: single 10 mg/kg sc in 3% ethanol and 7% Tween 80; for Activity (%) 10 mg/kg sc: single 10 mg/kg sc in 3% ethanol and 7% Tween 80 on day 1 post-infection
[4] = system: Schistosoma mansoni adult worms (49-day-old); experiment: Effect on adult schistosomes (49-day-old) in infected mice; format: in vivo; settings: single 400 mg/kg per os; for % reduction of adult worms growth at day 49 after per os application of 400 mg/kg, TWR (%): 49-day-old adults, total worm reduction rate; for Adult worms day 49, per os 400 mg/kg, DEAD WORM (%): percentage of dead worm in the liver
Protocol: Mice were infected with 100 Schistosoma mansoni cercariae on day 49 post-treatment. Each group was treated per os with OZ compounds at single doses of 200, 400, and 600 mg/kg. Untreated mice served as the control. All groups were killed 4 weeks after treatment and the liver and intestine were removed and separated. The liver and intestine were compressed and alive male and female worms could be seen and counted.

P. berghei ANKA strain = experiment: Divided 3x3 mg/kg and 3x1 mg/kg po doses in infected mice; format: in vivo, Plasmodium berghei; settings: for Activity (%): percent reduction of parasitemia vs control on day 4
Protocol: Moro NMRI male mice (Fu Albino specific pathogen free) weighing 18±2 g were infected intravenously (i.v.) with 2×10^7 P. berghei ANKA strain-infected erythrocytes from donor mice on day 0 of the experiment. From donor mice with circa 30% parasitemia, heparinized blood was taken and diluted in physiological saline to 10^8 parasitized erythrocytes per ml. An aliquot (0.2 ml) of this suspension was injected i.v. into experimental and control groups of mice. […] Throughout the experiments, mice were kept in groups of three or five animals in Makrolon type II cages in an air-conditioned animal room at 22 to 23° C.
They were administered per os (p.o.) in a total volume of 0.01 ml per gram of mouse. The activity of the compound was determined by a variety of methods outlined in subsequent sections. Survival time was also recorded, and survival to day 30 post-infection was considered to be a cure.
The second experiment consists of administration of divided 3×3 mg/kg and 3×1 mg/kg po doses administered on days 1, 2, and 3 post-infection. On day 4 post-infection, blood smears of all animals were prepared and stained with Giemsa. […] Compounds were administered orally in the SSV vehicle.

[5] = K1, 72 h, read-out: IC50 (ng/ml) K1, chloroquine-resistant K1 strain, 72 h incubation
[6] = NF54, 72 h, read-out: IC50 (ng/ml) NF54, chloroquine-sensitive NF54 strain, 72 h incubation
[7] = chloroquine-sensitive NF54 strain, 72 h incubation
[8] = 3 × 1 mg/kg p.o. SSV on days 1, 2, 3 post-infection
[9] = 3 × 3 mg/kg p.o. SSV on days 1, 2, 3 post-infection

Row | SMILES | Survival (days) 10 mg/kg po [3] | % reduction of adult worms growth at day 49 after per os application of 400 mg/kg, TWR (%) [4] | Adult worms day 49, per os 400 mg/kg, DEAD WORM (%) [4] | Survival (P. berghei ANKA strain; [8]) | Activity (%) (P. berghei ANKA strain; [8]) | Survival (P. berghei ANKA strain; [9]) | Activity (%) (P. berghei ANKA strain; [9]) | other results
1 | O=C1COC2(CCC3(CC2)OOC2(O3)C3CC4CC(C3)CC2C4)OC1 (stereo not shown) [OZ130, Adamantane-2-spiro-3′-11′-oxo-1′,2′,4′,9′,13′-pentaoxadispiro[4.2.5.2]pentadecane] | 9.0 days | 0% | 8% |  |  |  |  | IC50 [1, 5]: 0.62 ng/mL (≈ 0.00177 µM); IC50 [2, 6]: 0.94 ng/mL (≈ 0.00268 µM); Activity (%) 10 mg/kg po [3]: 98.8%; Survival (days) 10 mg/kg SSV po [3]: 8.0 days; Activity (%) 10 mg/kg SSV po [3]: 98.9%; Survival (days) 10 mg/kg sc [3]: 7.3 days; Activity (%) 10 mg/kg sc [3]: 98.6%
2 | O=C([C@H]1CC[C@]2(CC1)OOC1(O2)C2CC3CC(C2)CC1C3)N1CCN(c2ccccc2)CC1 (stereo partly shown) [OZ140] | 6.0 days | 0% | 3% |  |  |  |  | IC50 [1, 5]: 5.9 ng/mL (≈ 0.013 µM); IC50 [2, 6]: 8.2 ng/mL (≈ 0.0181 µM); Activity (%) 10 mg/kg po [3]: 0%; Survival (days) 10 mg/kg SSV po [3]: 6.3 days; Activity (%) 10 mg/kg SSV po [3]: 8%; Survival (days) 10 mg/kg sc [3]: 7.0 days; Activity (%) 10 mg/kg sc [3]: 60%
3 | O=C(OC[C@H]1CC[C@]2(CC1)OOC1(O2)C2CC3CC(C2)CC1C3)N1CCN(c2ccccc2)CC1 (stereo partly drawn) [OZ148, cis-Adamantane-2-spiro-3′-1′,2′,4′-trioxaspiro[4.5]decane-8′-methyl 4-phenylpiperazine-1-carboxylate] | 7.3 days | 25% | 0% |  |  |  |  | IC50 ([1]; chloroquine-resistant K1 strain, 72 h incubation, read-out: IC50 (ng/ml) K1): 17 ng/mL (≈ 0.0352 µM); IC50 ([2]; chloroquine-sensitive NF54 strain, 72 h incubation, read-out: IC50 (ng/ml) NF54): 16 ng/mL (≈ 0.0332 µM); Activity (%) 10 mg/kg po [3]: 38%; Survival (days) 10 mg/kg SSV po [3]: 7.7 days; Activity (%) 10 mg/kg SSV po [3]: 58%; Survival (days) 10 mg/kg sc [3]: 6.3 days; Activity (%) 10 mg/kg sc [3]: 21%
4 | OC12CC3CC(C1)C1(OOC4(CCC5(CC4)OCCO5)O1)C(C3)C2 (stereo not shown) [OZ153, 5-Hydroxyadamantane-2-spiro-3′-1′,2′,4′,9′,12′-pentaoxadispiro[4.2.4.2]tetradecane] | 6.3 days |  | no dead |  |  |  |  | IC50 (ng/ml) K1 ([1]; chloroquine-resistant K1 strain, 72 h incubation): 7.7 ng/mL (≈ 0.0228 µM); IC50 (ng/ml) NF54 [2, 7]: 19 ng/mL (≈ 0.0561 µM); Activity (%) 10 mg/kg po ([3]; 10 mg/kg): 15%; Survival (days) 10 mg/kg SSV po ([3]; 10 mg/kg): 7.0 days; Activity (%) 10 mg/kg SSV po ([3]; 10 mg/kg): 23%; Survival (days) 10 mg/kg sc ([3]; 10 mg/kg): 6.3 days; Activity (%) 10 mg/kg sc ([3]; 10 mg/kg): 20%
5 | CC1(C)COC(c2ccc([C@H]3CC[C@]4(CC3)OOC3(O4)C4CC5CC(C4)CC3C5)cc2)=N1 (stereo partly shown) [OZ154] |  | 58% | 0% |  |  |  |  | IC50 [1, 5]: 5 ng/mL (≈ 0.0114 µM); IC50 (ng/ml) NF54 [2, 7]: 6.1 ng/mL (≈ 0.0139 µM); Survival (days) 10 mg/kg po ([3]; 10 mg/kg): 14.7 days; Activity (%) 10 mg/kg po ([3]; 10 mg/kg): 99.74%; Survival (days) 10 mg/kg SSV po ([3]; 10 mg/kg): 8.7 days; Activity (%) 10 mg/kg SSV po ([3]; 10 mg/kg): 81%; Survival (days) 10 mg/kg sc ([3]; 10 mg/kg): 7.7 days; Activity (%) 10 mg/kg sc ([3]; 10 mg/kg): 59%
6 | O=C(C[C@H]1CC[C@]2(CC1)OOC1(O2)C2CC3CC(C2)CC1C3)N1CCOCC1 (stereo partly shown) [OZ189] | 9.3 days | 0% | 30% |  |  |  |  | IC50 [1, 5]: 1.7 ng/mL (≈ 0.00434 µM); IC50 [2, 6]: 3 ng/mL (≈ 0.00766 µM); Activity (%) 10 mg/kg po [3]: 95%; Survival (days) 10 mg/kg SSV po [3]: 9.0 days; Activity (%) 10 mg/kg SSV po [3]: 99.79%; Survival (days) 10 mg/kg sc [3]: 10.7 days; Activity (%) 10 mg/kg sc [3]: 98%
7 | C1=C(c2ccccc2)CCC2(C1)OOC1(O2)C2CC3CC(C2)CC1C3 (stereo not shown) [OZ226, Adamantane-2-spiro-3′-8′-phenyl-1′,2′,4′-trioxaspiro[4.5]dec-7′-ene] | 5.0 days | 52% | 0% |  |  |  |  | IC50 [1, 5]: 4 ng/mL (≈ 0.0118 µM); IC50 [2, 6]: 4 ng/mL (≈ 0.0118 µM); Activity (%) 10 mg/kg po [3]: 0%; Survival (days) 10 mg/kg SSV po [3]: 5.3 days; Activity (%) 10 mg/kg SSV po [3]: 0%; Survival (days) 10 mg/kg sc [3]: 11.0 days; Activity (%) 10 mg/kg sc [3]: 99.92%
8 | Oc1ccc(C2CCC3(CC2)OOC2(O3)C3CC4CC(C3)CC2C4)cc1 (stereo not shown) [compound 288] |  |  |  | 8.4 days | 49% | 10.2 days | 99% | 
9 | CCOC(=O)CNCC1CCC2(CC1)OOC1(O2)C2CC3CC(C2)CC1C3.CS(=O)(=O)O (stereo not shown) [compound 290] |  |  |  | 6.8 days | 14% | 10.6 days | 93% | 
10 | O=C1CN(C(=O)CC2CCC3(CC2)OOC2(O3)C3CC4CC(C3)CC2C4)CCN1 (stereo not shown) [compound 296] |  |  |  | 7.8 days | 49% | 9.4 days | 94% | 
11 | O=C(CC1CCC2(CC1)OOC1(O2)C2CC3CC(C2)CC1C3)N1CCC(O)CC1 (stereo not shown) [compound 297] |  |  |  | 6.4 days | 22% | 9.4 days | 89% | 
12 | NS(=O)(=O)c1ccc(NCC2CCC3(CC2)OOC2(O3)C3CC4CC(C3)CC2C4)cc1 (stereo not shown) [compound 298] |  |  |  | 11 days | 93% | 16.4 days | 99.99% | 
13 | O=c1ccn(CC2CCC3(CC2)OOC2(O3)C3CC4CC(C3)CC2C4)cc1 (stereo not shown) [compound 302] |  |  |  | 13.4 days | 87% | 13.4 days | 99.51% | 
14 | Cc1ccc(S(=O)(=O)O)cc1.NCCNC(=O)CC1CCC2(CC1)OOC1(O2)C2CC3CC(C2)CC1C3 (stereo not shown) [compound 305] |  |  |  | 9.6 days | 87% | 12.2 days | 99.91% | 
15 | NC(=O)CNC(=O)CC1CCC2(CC1)OOC1(O2)C2CC3CC(C2)CC1C3 (stereo not shown) [compound 306] |  |  |  | 11 days | 85% | 7.6 days | 99.75% | 
16 | CS(=O)(=O)O.O=C(O)CNCC1CCC2(CC1)OOC1(O2)C2CC3CC(C2)CC1C3 (stereo not shown) [compound 309] |  |  |  | 9.4 days | 66% | 9.2 days | 99% | 
17 | NC1(C(=O)NCC2CCC3(CC2)OOC2(O3)C3CC4CC(C3)CC2C4)CCCC1 (stereo not shown) [compound 317] |  |  |  | 11.4 days | 73% | 16.8 days | 100% | 
18 | CS(=O)(=O)O.NC(=O)CCNCC1CCC2(CC1)OOC1(O2)C2CC3CC(C2)CC1C3 (stereo not shown) [compound 319] |  |  |  | 13 days | 92% | 11.2 days | 99.97% | 
19 | NC(=O)c1cn(CC2CCC3(CC2)OOC2(O3)C3CC4CC(C3)CC2C4)cn1 (stereo not shown) [compound 320] |  |  |  | 8.6 days | 50% | 9.6 days | 96% | 
20 | CS(=O)(=O)O.NCCOc1ccc(C2CCC3(CC2)OOC2(O3)C3CC4CC(C3)CC2C4)cc1 (stereo not shown) [compound 323] |  |  |  | 14.4 days | 66% | 14.4 days | 99.95% | 
